Experiments:
EPSCs = experiment: EPSCM with other wnt inhibitor in place of XAV939; format: cell-based
AB2.2 mouse ESCs = experiment: TE contribution of mouse ESCs cultured in inhibitor combinations, injected to 8-cell host embryos; format: cell-based; conditions: AB2.2 mouse ESCs cultured at least 5 passages, chimera blastocysts co-stained for mCherry and Cdx2
Excerpt: Mouse EPSCs were initially derived and maintained in the standard EPSCM that contains six inhibitors (see materials and methods). To determine the effects of individual inhibitors in EPSCM and to explore the possibility that fewer inhibitors might be sufficient for the expanded potential in mouse stem cells, we cultured AB2.2 mouse ESCs in various combinations of inhibitors, initially based on the 2i/LIF medium, for at least 5 passages before injected to 8-cell host embryos. The chimera blastocysts were co-stained for mCherry and Cdx2 for TE contribution.
Injections were carried out with a Nikon Eclipse TE2000-U inverted microscope unit. ESC/EPSC microinjection was performed at room temperature on the inverted lid of a 100-mm falcon culture dish in an injection drop of 1.0 ml M2 medium (Sigma) The embryo was injected with 6-8 cells per 8-cell stage embryo for bulk injection or 1 cell per embryo for single cell injection. After 45-50 embryos have been injected, the injected embryos were washed three times in KSOM (Millipore) containing 3.0 mg/ml BSA, Embryos were then transferred into a well of four-well plate containing 1.0 ml KSOM. After overnight culture, 20-25 injected embryos were transferred into both uterus of a foster recipient.

human EPSCs = experiment: Culture and maintenance of human EPSCs; format: cell-based
Excerpt: We also investigated whether human ESCs could survive and proliferate in EPSCM. H1 hESCs were maintained in standard FGF2 containing media on feeders. H1 cells survived culture in EPSCM and morphologically distinct 3-dimensional colonies emerged within one passage. Continued culture allowed establishment of a stable line which we called H1-EPSCs.
Human iPSC lines were also produced from human neural stem cells, and from human fetal or adult skin fibroblast cells using the six-factor reprogramming technology described in Wang et al (2011) and cultured for 2-3 weeks on feeders. The resulting iPSCs were switched to EPSCM and transgene free stable lines were established (EPSC-iPSCs). (FIG. 6). Stable human EPSC-iPSC lines have been passaged for over 30 passages in EPSCM.
We made several reporter EPSC lines that have a GFP or mCherry expression cassette at loci including Oct4, Sox2 and ROSA26. […] Importantly, these reporter cells provide a convenient way to assess the culture condition. […] However, we have also observed cases where EPSCM supplemented with fewer than six inhibitors has been able to obtain EPSCs. For example, where the EPSCM is supplemented with a chemically defined basal medium, such as Albumax II, it has been observed that fewer than six inhibitors are required obtain EPSCs. […]

Jak/Stat pathway = experiment: LIF response in ESCs and EPSCs; format: cell-based, mouse; conditions: adding LIF to EPSCs
Description: For LIF stimulation, 1.0×10^6 cells were seeded in […] for 24 hours. Cells were washed with PBS and cultured in DMEM/F12/KSR for 4 hours, then LIF was supplemented at concentration of 0.0, 0.5, 1.0, 5.0 and 10.0 ng/ml for 30 minutes. Whole cell protein was extracted for Western blot using pSTAT3 (Cell signalling) and STAT3 (BD Biosciences) antibodies. α-Tubulin (Abcam) was used as loading control.
To analyse the expression of down-stream target genes of Jak-Stat3 and MAPK signalling at transcription level after LIF stimulation, both E14Tg2a ESCs and EPSCs were deprived of LIF for 4 hours as above, LIF 1.0 ng/ml was supplemented for 1 hour, total RNA was extracted and reverse transcribed to make cDNA. qPCR was performed using Taqman Gene Expression Assays (ABI)

Cc1ccc2nc(NC(=O)CSc3nc4c(c(=O)n3-c3ccccc3)SCC4)sc2c1 [IWP-2]
use as the wnt inhibitor in EPSCM in place of XAV939 (EPSCs): successfully used

Oc1nc(-c2ccc(C(F)(F)F)cc2)nc2c1CSCC2 [XAV939]
TE contribution on adding inhibitor to the 2i/LIF (2i) medium (AB2.2 mouse ESCs): substantially increased TE contribution

CCOc1nc(NC(=O)Cc2cc(OC)ccc2OC)cc(N)c1C#N [JNKi]
effect of inhibitor absence on human EPSC culture (human EPSCs): absence caused gradual deterioration

CN1CCN(C2CCC(n3cc(-c4ccc(Oc5ccccc5)cc4)c4c(N)ncnc43)CC2)CC1 (centres unmarked) [A419259]
TE contribution on adding inhibitor to the 2i/LIF (2i) medium (AB2.2 mouse ESCs): substantially increased TE contribution

C[S+]([O-])c1ccc(-c2nc(-c3ccncc3)c(-c3ccc(F)cc3)[nH]2)cc1 (centres unmarked) [p38i]
effect of inhibitor absence on human EPSC culture (human EPSCs): absence caused gradual deterioration

Cc1cc(/C=C2\SC(=O)N(c3ccccc3)C2=O)c(C)n1-c1cccnc1 [iCRT 14]
use as the wnt inhibitor in EPSCM in place of XAV939 (EPSCs): successfully used

LIF: leukemia inhibitory factor, a cytokine
expression of Jak/Stat downstream genes (Jak/Stat pathway): upregulated expression of Jak/Stat downstream genes | phosphorylation of Stat3 (Jak/Stat pathway): increased phosphorylation of Stat3

From patent US11913018B2, “In vitro production of expanded potential stem cells” (GENOME RESEARCH LIMITED, priority 2014, dated 2024)
